Data set [1] is described as follows: Storage stability in aqueous solution at pH 3.5 and room temperature. In kind it is physicochemical. To be noted: pH 3.5, room temperature. The source says:
The rate of breakdown is dependent on the pH of the solution and temperature, with the concentration not playing a role. Particularly in the acid pH region, this breakdown to creatinine proceeds very rapidly. At room temperature and pH 3.5, creatine is already more than 20% converted to creatinine after 3 days and the physiological effect is lost. A pH of 3.5 is a typical pH for, for example, a soft drink. Owing to the rapid breakdown of creatine in this environment, the use of creatine, in particular creatine monohydrate, in aqueous or moist formulations for human and animal nutrition is virtually excluded. Even the pH in the stomach of 1 to 2 can, depending on the residence time, lead to significant breakdown of creatine to form creatinine.
According to FIG. 1, the storage stability of creatine was determined in comparison with a mixture of 4 parts by weight of guanidinoacetic acid and 6 parts by weight of betaine in aqueous solution at pH 3.5 and room temperature: whereas creatine, after 3 days, is already more than 20% converted to creatinine, in the mixture of guanidinoacetic acid and betaine under identical conditions, after 90 days, 95% of the initial amount was still detectable as guanidinoacetic acid.

The conditions of data set [2]: cited from earlier work.
A short description of data set [3]: Stability under pasteurization or sterilization of aqueous preparations. To be noted: in contrast to creatine. In kind it is physicochemical. From the text:
In the production process, aqueous preparations, such as those according to the invention, also, are generally pasteurized or sterilized. […] These advantages were unexpected in this manner in their totality.

Data set [4] can be described thus: Solubility in water. It counts as physicochemical. As to conditions: room temperature. The source says: In comparison with creatine, guanidinoacetic acid has a lower solubility in water (3.8 g per liter at room temperature). […] Therefore, for example, even in half a liter of an aqueous drink, a physiologically meaningful daily dose of the guanidinoacetic acid component can be incorporated without problem.

Data set [5] deals with Staphyllococcus aureus. As to conditions: animal experiments; cited from earlier work.
Where [6] appears, read: 0.032% guanidinoacetic acid in hens' feed.
Where [7] appears, read: chickens, less than 0.1% guanidinoacetic acid in the feed.

Molecules are shown by their SMILES. Like-named read-outs stand apart in the source and are kept apart here.

In the case of `C[N+](C)(C)CC(=O)O` [Betaine, betaine], in data set [1], the “stability under the stated conditions” value is listed as “completely stable”.

Take `CN(CC(=O)O)C(=N)N` [creatine, reference compound]: the weight gain in data set [2] (chickens, 0.2% creatine in the feed) is 4%. The converted to creatinine result in data set [1] (after 3 days) is listed as “more than 20%”.

For `N=C(N)NCC(=O)O` [guanidinoacetic acid], in data set [2] (setting [6]), the improved feed utilization is 3% and the weight gain was 3%. Further, in data set [2] (setting [7]), the “lower feed consumption compared with the control group” value is recorded as 6% and the “weight gain compared with the control group” value is listed as 7%. In data set [3], the “stability under pasteurization/sterilization conditions” value was “outstanding stability”. The compound also registered a solubility in water in data set [4] of 3.8 g per liter. For the same compound, the “use against bacterial infections” value in data set [5] was “successfully used”.

The record behind these values is patent US20090297656A1, “Liquid Formulation Based On a Guanidinoacetic Acid Component” (priority 2005, published 2009).
